Measurements: patent publication US20260159536A1, “AKR1C3-ACTIVATED DNA ALKYLATING AGENT, AND MEDICAL APPLICATION THEREOF” (ASCENTAWITS PHARMACEUTICALS, LTD., priority 2021, published 2026)

Assays:
[1] = system: human lung cancer NCI-H460-Luc2 cells (intracranial); test: In vivo pharmacodynamics, NCI-H460-Luc2 intracranial inoculation CDX model; design: species or system BALB/c nude mice; settings: for Bioluminescence Value (Day 11) / T/C (%) / TGI (%): i.v. QWx3, Day 11
Method: The experiment was divided into groups of test drug Paclitaxel 20 mg/kg group, Compound A 2 mg/kg, 4 mg/kg and 8 mg/kg groups and 10% ethanol+10% polyoxyethylene castor oil+80% glucose injection DSW (pH 7.42) vehicle control group (Vehicle group), with 6 mice per group. […] The positive drug Paclitaxel 20 mg/kg group was administered by intraperitoneal injection and administered once a week for 3 weeks.
The pharmacodynamic analysis of each group in the human NCI-H460-luc intracranial inoculation model was performed based on the measured bioluminescence values on day 11 after administration, and the results were shown in Table 14.

[2] = system: HuPrime model LI1005 human liver cancer; test: In vivo pharmacodynamics, liver cancer LI1005 PDX model; design: species or system BALB/c nude mice; settings: for Tumor volume (x ± S): in mm³ (unit assumed)
[3] = MTD assay of AST-3424, single 30 min intravenous drip; type: in vivo, machins; settings: for maximal tolerance dose: single dose; for day of test substance-related death: male
Method: The maximal tolerance dose in machins after a single administration of AST-3424 injection by intravenous drip for 30 minutes was evaluated.

[4] = 1.25 mg/kg, QDx5, 2 days off, 2 weeks off, QDx5, i.p., Day 35
[5] = 2.5 mg/kg, QDx5, 2 days off, 2 weeks off, QDx5, i.p., Day 35
[6] = 5 mg/kg, QDx5, 2 days off, 2 weeks off, QDx5, i.p., Day 35
[7] = 10 mg/kg, QWx2, 1 week off, QWx2, i.v., Day 35

In the case of `O=[N+]([O-])c1ccc(C(OP(=O)(N2CC2)N2CC2)C(F)(F)F)cc1Oc1ccc(-c2ccc(F)cc2)c(F)c1` (racemic) [Compound A], the “Bioluminescence Value (Day 11)” value ([1]; 2 mg/kg) is reported as 7.62 ± 2.10 ×10^5 photon/second, the “T/C (%)” value ([1]; 2 mg/kg) is reported as 0.24% and the “TGI (%)” value ([1]; 2 mg/kg) is reported as 99.80%. The “Bioluminescence Value (Day 11)” value ([1]; 4 mg/kg) was 1.62 ± 0.30 ×10^5 photon/second, the “T/C (%)” value ([1]; 4 mg/kg) was 0.05% and the “TGI (%)” value ([1]; 4 mg/kg) was 100.03%. For the same compound, the “Bioluminescence Value (Day 11)” value ([1]; 8 mg/kg) was 1.78 ± 0.42 ×10^5 photon/second, the “T/C (%)” value ([1]; 8 mg/kg) was 0.06% and the “TGI (%)” value ([1]; 8 mg/kg) was 100.03%. For the same compound, the body weight change ([1]; 2, 4, 8 mg/kg i.v.) was “little change”, the Tumor volume ([2]; 1.25 mg/kg i.p., Day 0) was 102.66 mm^3 and the Tumor volume ([2]; 1.25 mg/kg i.p., Day 3) was 157.94 mm^3. It also gave a Tumor volume ([2]; 1.25 mg/kg i.p., Day 7) of 198.68 mm^3, a Tumor volume ([2]; 1.25 mg/kg i.p., Day 10) of 188.83 mm^3 and a Tumor volume ([2]; 1.25 mg/kg i.p., Day 14) of 196.25 mm^3. It also gave a Tumor volume ([2]; 1.25 mg/kg i.p., Day 17) of 204.85 mm^3, a Tumor volume ([2]; 1.25 mg/kg i.p., Day 21) of 228.87 mm^3 and a Tumor volume ([2]; 1.25 mg/kg i.p., Day 24) of 256.49 mm^3. For the same compound, the Tumor volume ([2]; 1.25 mg/kg i.p., Day 28) was 246.26 mm^3, the Tumor volume ([2]; 1.25 mg/kg i.p., Day 31) was 282.93 mm^3 and the Tumor volume ([2]; 1.25 mg/kg i.p., Day 35) was 334.61 mm^3. The “Relative tumor volume (x ± S)” value [2, 4] was 3.28 ± 0.53, the “T/C (%)” value [2, 4] was 32.47% and the “TGI (%)” value [2, 4] was 67.53%. The “Tumor volume (x ± S)” value [2, 4] was 334.61 ± 61.24, the Tumor volume ([2]; 2.5 mg/kg i.p., Day 0) was 103.02 mm^3 and the Tumor volume ([2]; 2.5 mg/kg i.p., Day 3) was 156.63 mm^3. It also gave a Tumor volume ([2]; 2.5 mg/kg i.p., Day 7) of 197.27 mm^3, a Tumor volume ([2]; 2.5 mg/kg i.p., Day 10) of 156.39 mm^3 and a Tumor volume ([2]; 2.5 mg/kg i.p., Day 14) of 147.34 mm^3. The Tumor volume ([2]; 2.5 mg/kg i.p., Day 17) was 148.94 mm^3, the Tumor volume ([2]; 2.5 mg/kg i.p., Day 21) was 173.92 mm^3 and the Tumor volume ([2]; 2.5 mg/kg i.p., Day 24) was 180.83 mm^3. The Tumor volume ([2]; 2.5 mg/kg i.p., Day 28) was 178.96 mm^3, the Tumor volume ([2]; 2.5 mg/kg i.p., Day 31) was 182.98 mm^3 and the Tumor volume ([2]; 2.5 mg/kg i.p., Day 35) was 178.69 mm^3. The “Relative tumor volume (x ± S)” value [2, 5] was 1.60 ± 0.42, the “T/C (%)” value [2, 5] was 15.88% and the “TGI (%)” value [2, 5] was 84.12%. For the same compound, the “Tumor volume (x ± S)” value [2, 5] was 178.69 ± 65.98, the Tumor volume ([2]; 5 mg/kg i.p., Day 0) was 103.15 mm^3 and the Tumor volume ([2]; 5 mg/kg i.p., Day 3) was 160.80 mm^3. The Tumor volume ([2]; 5 mg/kg i.p., Day 7) was 167.82 mm^3, the Tumor volume ([2]; 5 mg/kg i.p., Day 10) was 120.93 mm^3 and the Tumor volume ([2]; 5 mg/kg i.p., Day 14) was 97.35 mm^3. The Tumor volume ([2]; 5 mg/kg i.p., Day 17) was 90.25 mm^3, the Tumor volume ([2]; 5 mg/kg i.p., Day 21) was 106.81 mm^3 and the Tumor volume ([2]; 5 mg/kg i.p., Day 24) was 115.29 mm^3. It also gave a Tumor volume ([2]; 5 mg/kg i.p., Day 28) of 110.01 mm^3, a Tumor volume ([2]; 5 mg/kg i.p., Day 31) of 102.22 mm^3 and a Tumor volume ([2]; 5 mg/kg i.p., Day 35) of 85.00 mm^3. For the same compound, the “Relative tumor volume (x ± S)” value [2, 6] was 0.77 ± 0.18, the “T/C (%)” value [2, 6] was 7.62% and the “TGI (%)” value [2, 6] was 92.38%. For the same compound, the “Tumor volume (x ± S)” value [2, 6] was 85.00 ± 26.32, the Tumor volume ([2]; 10 mg/kg i.v., Day 0) was 102.58 mm^3 and the Tumor volume ([2]; 10 mg/kg i.v., Day 3) was 127.72 mm^3. It also gave a Tumor volume ([2]; 10 mg/kg i.v., Day 7) of 172.58 mm^3, a Tumor volume ([2]; 10 mg/kg i.v., Day 10) of 138.61 mm^3 and a Tumor volume ([2]; 10 mg/kg i.v., Day 14) of 127.60 mm^3. The Tumor volume ([2]; 10 mg/kg i.v., Day 17) was 132.95 mm^3, the Tumor volume ([2]; 10 mg/kg i.v., Day 21) was 151.00 mm^3 and the Tumor volume ([2]; 10 mg/kg i.v., Day 24) was 181.36 mm^3. For the same compound, the Tumor volume ([2]; 10 mg/kg i.v., Day 28) was 191.25 mm^3, the Tumor volume ([2]; 10 mg/kg i.v., Day 31) was 186.25 mm^3 and the Tumor volume ([2]; 10 mg/kg i.v., Day 35) was 179.97 mm^3. The “Relative tumor volume (x ± S)” value [2, 7] was 1.87 ± 0.54, the “T/C (%)” value [2, 7] was 18.53% and the “TGI (%)” value [2, 7] was 81.47%. For the same compound, the “Tumor volume (x ± S)” value [2, 7] was 179.97 ± 51.38 and the “tolerability / body weight” value ([2]; Compound A 10, 1.25, 2.5, 5 mg/kg, Sorafenib 30 mg/kg) was “well tolerated”.

In the case of `C[C@@H](OP(=O)(N1CC1)N1CC1)c1ccc([N+](=O)[O-])c(Oc2cccc(C(=O)N(C)C)c2)c1` [AST-3424], the maximal tolerance dose ([3]; female machins) is reported as 1.5 mg/kg, the clinical observation ([3]; female monkeys, 1.5 mg/kg) is reported as “weight loss, decreased food consumption, diarrhoea and vomiting” and the maximal tolerance dose ([3]; male machins) is reported as 0.5 mg/kg. For the same compound, the “day of test substance-related death” value ([3]; 1.0 mg/kg) was 16 days, the “day of test substance-related death” value ([3]; 1.5 mg/kg) was 8 days and the “doses at which death of male monkeys was observed” value ([3]; single intravenous drip 30 minutes) was ≥ 1.0 mg/kg.
